Experimental data published in PubChem BioAssay AID334 (DTP/NCI, 2004).
“And” between values parts separate entries of the source, which are not always exact repeats. Identical values can stand only once. Inconclusive results and toxic doses are left out.

Tested on: CD2F1 mice, intracerebral P388 leukemia, median survival T/C%
Test: NCI In Vivo Anticancer Drug Screen. Data for tumor model P388 Leukemia (intracerebral) in CD2F1 (CDF1) mice
Details: endpoint: median survival time, higher = longer survival
Method: The antitumor activity of compounds was measured in mice bearing transplantable tumors. Survival or tumor size were measured and the results are expressed as the measurement made in the treated group (T) divided by the measurement made in the vehicle treated control group (C). The tumor model used in this assay is P388 Leukemia (intracerebral) in CD2F1 (CDF1) mice

[1] = dose: 0.25 mg/kg/injection, schedule: Q01DX009 (ip), vehicle: saline
[2] = dose: 0.5 mg/kg/injection, schedule: Q01DX009 (ip), vehicle: saline
[3] = dose: 1.0 mg/kg/injection, schedule: Q01DX009 (ip), vehicle: saline
[4] = dose: 8.0 mg/kg/injection, schedule: Q01DX009 (ip), vehicle: Klucel (hydroxypropylcellulose) (HPC)
[5] = dose: 8.0 mg/kg/injection, schedule: Q01DX009 (ip), vehicle: saline with Tween-80
[6] = dose: 16.0 mg/kg/injection, schedule: Q01DX009 (ip), vehicle: Klucel (hydroxypropylcellulose) (HPC)
[7] = dose: 16.0 mg/kg/injection, schedule: Q01DX009 (ip), vehicle: saline with Tween-80
[8] = dose: 32.0 mg/kg/injection, schedule: Q01DX009 (ip), vehicle: Klucel (hydroxypropylcellulose) (HPC)
[9] = dose: 32.0 mg/kg/injection, schedule: Q01DX009 (ip), vehicle: saline with Tween-80
[10] = dose: 64.0 mg/kg/injection, schedule: Q01DX009 (ip), vehicle: Klucel (hydroxypropylcellulose) (HPC)
[11] = dose: 128.0 mg/kg/injection, schedule: Q01DX009 (ip), vehicle: Klucel (hydroxypropylcellulose) (HPC)
[12] = dose: 128.0 mg/kg/injection, schedule: Q01DX009 (ip), vehicle: saline with Tween-80
[13] = dose: 256.0 mg/kg/injection, schedule: Q01DX009 (ip), vehicle: saline with Tween-80
[14] = dose: 25.0 mg/kg/injection, schedule: Q01DX009 (ip), vehicle: saline
[15] = dose: 50.0 mg/kg/injection, schedule: Q01DX009 (ip), vehicle: saline
[16] = dose: 2.0 mg/kg/injection, schedule: Q01DX009 (ip), vehicle: saline
[17] = dose: 4.0 mg/kg/injection, schedule: Q01DX009 (ip), vehicle: saline

O=C1C=C(N2CC2)C(=O)C=C1N1CC1
T/C (dose: 0.12 mg/kg/injection, schedule: Q01DX009 (ip), vehicle: saline): 104 % of control and 105 % of control and 106 % of control | T/C [1]: 100 % of control and 101 % of control and 105 % of control | T/C [2]: 105 % of control and 107 % of control and 111 % of control | T/C [3]: 92 % of control and 93 % of control and 100 % of control

CCCCCC(=O)O[C@]1(C(C)=O)CC[C@H]2[C@@H]3CCC4=CC(=O)CC[C@]4(C)[C@H]3CC[C@@]21C
T/C [4]: 118 % of control and 105 % of control | T/C [5]: 535 % of control | T/C [6]: 100 % of control and 111 % of control | T/C [7]: 100 % of control | T/C [8]: 118 % of control and 105 % of control | T/C [9]: 98 % of control | T/C [10]: 102 % of control and 111 % of control | T/C [11]: 121 % of control and 100 % of control | T/C [12]: 107 % of control | T/C (dose: 256.0 mg/kg/injection, schedule: Q01DX009 (ip), vehicle: Klucel (hydroxypropylcellulose) (HPC)): 120 % of control and 110 % of control | T/C [13]: 98 % of control | T/C (dose: 512.0 mg/kg/injection, schedule: Q01DX009 (ip), vehicle: Klucel (hydroxypropylcellulose) (HPC)): 124 % of control and 105 % of control | T/C (dose: 512.0 mg/kg/injection, schedule: Q01DX009 (ip), vehicle: saline with Tween-80): 279 % of control

Nc1nc2c(c(=O)[nH]1)N(C=O)C(CNc1ccc(C(=O)N[C@@H](CCC(=O)O)C(=O)O)cc1)CN2 (stereo not given in full)
T/C (dose: 128.0 mg/kg/injection, schedule: Q01DX005 (ip), vehicle: suspension in saline): 98 % of control | T/C (dose: 256.0 mg/kg/injection, schedule: Q01DX005 (ip), vehicle: suspension in saline): 97 % of control | T/C (dose: 512.0 mg/kg/injection, schedule: Q01DX005 (ip), vehicle: suspension in saline): 100 % of control

CCCCCCC(=O)O[C@H]1CC[C@H]2[C@@H]3CCC4=CC(=O)CC[C@]4(C)[C@H]3CC[C@]12C
T/C (dose: 8.0 mg/kg/injection, schedule: Q01DX009 (ip), vehicle: saline + alcohol): 122 % of control and 103 % of control | T/C (dose: 16.0 mg/kg/injection, schedule: Q01DX009 (ip), vehicle: saline + alcohol): 118 % of control and 105 % of control | T/C (dose: 32.0 mg/kg/injection, schedule: Q01DX009 (ip), vehicle: saline + alcohol): 120 % of control and 102 % of control | T/C (dose: 64.0 mg/kg/injection, schedule: Q01DX009 (ip), vehicle: saline + alcohol): 114 % of control and 100 % of control | T/C (dose: 128.0 mg/kg/injection, schedule: Q01DX009 (ip), vehicle: saline + alcohol): 118 % of control and 112 % of control

CCCCCCCCCCCCCCCCCC(=O)NC(Cc1ccc(N(CCCl)CCCl)cc1)C(=O)O (stereo not given)
T/C (dose: 1.88 mg/kg/injection, schedule: Q03HX008 (ip), vehicle: saline): 110 % of control | T/C (dose: 3.75 mg/kg/injection, schedule: Q03HX008 (ip), vehicle: saline): 115 % of control

CN(Cc1cnc2nc(N[Si](C)(C)C)nc(N[Si](C)(C)C)c2n1)c1ccc(C(=O)NC(CCC(=O)O[Si](C)(C)C)C(=O)O[Si](C)(C)C)cc1 (stereo not given)
T/C (dose: 0.63 mg/kg/injection, schedule: Q01DX009 (ip), vehicle: olive oil, sesame oil, peanut oil): 110 % of control | T/C (dose: 0.63 mg/kg/injection, schedule: Q01DX009 (ip), vehicle: saline): 90 % of control | T/C (dose: 1.25 mg/kg/injection, schedule: Q01DX009 (ip), vehicle: olive oil, sesame oil, peanut oil): 110 % of control | T/C (dose: 1.25 mg/kg/injection, schedule: Q01DX009 (ip), vehicle: saline): 100 % of control | T/C (dose: 1.9 mg/kg/injection, schedule: Q04DX003 (ip), vehicle: saline): 95 % of control | T/C (dose: 2.5 mg/kg/injection, schedule: Q01DX009 (ip), vehicle: saline): 100 % of control | T/C (dose: 3.8 mg/kg/injection, schedule: Q04DX003 (ip), vehicle: saline): 95 % of control | T/C (dose: 5.0 mg/kg/injection, schedule: Q01DX009 (ip), vehicle: saline): 95 % of control | T/C (dose: 15.0 mg/kg/injection, schedule: Q04DX003 (ip), vehicle: saline): 110 % of control | T/C (dose: 30.0 mg/kg/injection, schedule: Q04DX003 (ip), vehicle: saline): 120 % of control | T/C (dose: 60.0 mg/kg/injection, schedule: Q04DX003 (ip), vehicle: saline): 115 % of control

CS(=O)(=O)CS(=O)(=O)OCCCl
T/C (dose: 6.25 mg/kg/injection, schedule: Q01DX009 (ip), vehicle: saline): 110 % of control | T/C (dose: 12.5 mg/kg/injection, schedule: Q01DX009 (ip), vehicle: saline): 114 % of control | T/C [14]: 164 % of control | T/C [15]: 203 % of control

C[C@]12C=CC(=O)C=C1CC[C@@H]1[C@@H]2CC[C@]2(C)OC(=O)CC[C@@H]12
T/C [4]: 105 % of control and 111 % of control | T/C [5]: 95 % of control and 105 % of control | T/C [6]: 100 % of control and 103 % of control | T/C [7]: 104 % of control and 105 % of control | T/C [8]: 114 % of control and 102 % of control | T/C [9]: 97 % of control and 104 % of control | T/C [10]: 100 % of control and 105 % of control | T/C (dose: 64.0 mg/kg/injection, schedule: Q01DX009 (ip), vehicle: saline with Tween-80): 97 % of control | T/C [11]: 91 % of control and 111 % of control | T/C [12]: 104 % of control and 112 % of control | T/C [13]: 121 % of control and 94 % of control

COc1cc([C@@H]2c3cc4c(cc3[C@@H](OC3OC5CO[C@@H](c6cccs6)OC5C(O)C3O)[C@H]3COC(=O)[C@H]23)OCO4)cc(OC)c1O (stereo not given in full)
T/C [1]: 108 % of control | T/C [2]: 116 % of control | T/C [16]: 152 % of control | T/C [17]: 119 % of control

CC1(C)N=C(N)N=C(N)N1c1ccc(OCC(=O)N2CCOCC2)c(Cl)c1
T/C [14]: 88 % of control | T/C [15]: 111 % of control | T/C (dose: 100.0 mg/kg/injection, schedule: Q01DX009 (ip), vehicle: saline): 100 % of control

COc1cccc2c1C(=O)c1c(O)c3c(c(O)c1C2=O)C[C@@](O)(/C(C)=N/NC(=O)c1ccccc1)C[C@@H]3OC1CC(N)C(O)C(C)O1 (stereo not given in full)
T/C (dose: 1.0 mg/kg/injection, schedule: Q01DX009 (ip), vehicle: saline with Tween-80): 111 % of control | T/C [3]: 103 % of control and 106 % of control | T/C (dose: 2.0 mg/kg/injection, schedule: Q01DX009 (ip), vehicle: saline with Tween-80): 90 % of control and 108 % of control | T/C [16]: 113 % of control and 106 % of control | T/C (dose: 4.0 mg/kg/injection, schedule: Q01DX009 (ip), vehicle: saline with Tween-80): 114 % of control and 116 % of control | T/C [17]: 113 % of control and 111 % of control | T/C [5]: 106 % of control and 111 % of control | T/C (dose: 8.0 mg/kg/injection, schedule: Q01DX009 (ip), vehicle: saline): 100 % of control and 103 % of control | T/C [7]: 90 % of control and 94 % of control

O=P1(NCCCl)OCCCN1CCCl (stereo not given)
T/C (dose: 538.0 mg/kg/injection, schedule: Q01DX001 (ip), vehicle: saline): 153 % of control

CO[C@H]1C[C@@H]2CC[C@@H](C)[C@@](O)(O2)C(=O)C(=O)N2CCCC[C@H]2C(=O)O[C@H]([C@H](C)C[C@@H]2CC[C@@H](O)[C@H](OC)C2)CC(=O)[C@H](C)C=C(C)[C@@H](O)[C@@H](OC)C(=O)[C@H](C)C[C@H](C)/C=C/C=C/C=C1C
T/C (dose: 400.0 mg/kg/injection, schedule: Q01DX009 (ip), vehicle: gum acacia): 107 % of control

CC1(C)N=C(N)N=C(N)N1c1ccc(CCCCc2ccc(S(=O)(=O)F)cc2Cl)c(Cl)c1
T/C (dose: 12.5 mg/kg/injection, schedule: Q01DX009 (ip), vehicle: saline with Tween-80): 97 % of control | T/C (dose: 50.0 mg/kg/injection, schedule: Q01DX009 (ip), vehicle: saline with Tween-80): 116 % of control | T/C (dose: 100.0 mg/kg/injection, schedule: Q01DX009 (ip), vehicle: saline with Tween-80): 96 % of control | T/C (dose: 133.0 mg/kg/injection, schedule: Q04DX003 (ip), vehicle: saline with Tween-80): 102 % of control | T/C (dose: 200.0 mg/kg/injection, schedule: Q04DX003 (ip), vehicle: saline with Tween-80): 108 % of control | T/C (dose: 300.0 mg/kg/injection, schedule: Q04DX003 (ip), vehicle: saline with Tween-80): 95 % of control

CC[C@H]1CN2CCc3cc(OC)c(OC)cc3[C@@H]2C[C@@H]1C[C@H]1NCCc2cc(OC)c(OC)cc21
T/C (dose: 2.0 mg/kg/injection, schedule: Q01DX005 (ip), vehicle: Klucel (hydroxypropylcellulose) (HPC)): 113 % of control and 99 % of control | T/C (dose: 4.0 mg/kg/injection, schedule: Q01DX005 (ip), vehicle: Klucel (hydroxypropylcellulose) (HPC)): 94 % of control and 100 % of control | T/C (dose: 8.0 mg/kg/injection, schedule: Q01DX005 (ip), vehicle: Klucel (hydroxypropylcellulose) (HPC)): 119 % of control and 100 % of control
